Experimental data as given in US7247627B2, “Salts and polymorphs of a pyrrole-substituted indolinone compound” (Pharmacia & Upjohn Company, priority 2003, dated 2007).
Counter-ions that a name gives are not always drawn.

Tests used:
[1] = Hygroscopicity by dynamic moisture sorption gravimetry (DMSG); type: physicochemical; settings: for hygroscopicity / Water Uptake at 80% RH (wt. %) / hysteresis of sorption profile: DMSG; for Water Uptake at 80% RH (wt. %): 25° C.
Experimental: In one embodiment, the invention provides a non-hygroscopic salt of 5-[(Z)-(5-fluoro-2-oxo-1,2-dihydro-3H-indol-3-ylidene)methyl]-N-[(2S)-2-hydroxy-3-morpholin-4-ylpropyl]-2,4-dimethyl-1H-pyrrole-3-carboxamide. Hygroscopicity is determined by dynamic moisture sorption gravimetry (DMSG) using a controlled atmosphere microbalance at a temperature of 25° C. Samples are analyzed over a relative humidity range of from 0 to 90% in 3% steps. Each step is brought to equilibrium before moving to the next step, with equilibrium assessed as a weight change of less than 0.002 mg (0.02%) for five consecutive points at 1 point per 120 seconds.
Several salts of 5-[(Z)-(5-fluoro-2-oxo-1,2-dihydro-3H-indol-3-ylidene)methyl]-N-[(2S)-2-hydroxy-3-morpholin-4-ylpropyl]-2,4-dimethyl-1H-pyrrole-3-carboxamide were produced and analyzed for hygroscopicity. Hygroscopicity was determined by dynamic moisture sorption gravimetry (DMSG) using a controlled atmosphere microbalance at a temperature of 25° C. Samples were analyzed over a relative humidity range of from 0 to 90% in 3% steps, in a humidity profile of […], where the initial value of 36% reflects the approximate initial equilibrated relative humidity (not specifically measured). Each step was brought to equilibrium before moving to the next step, with equilibrium assessed as a weight change of less than 0.001 mg (0.01%) or 0.002 mg (0.02%) for five consecutive points at 1 point per 120 seconds. The water uptake at 80% relative humidity (RH) was selected for comparison between the salts. The 80% RH values for each salt are shown in Table 5, and the right column of the table identifies the corresponding Figure showing the complete DMSG scan. A range of values given for the water uptake at 80% reflects hysteresis in the 0→90% and 90→0% scans.

[2] = Chemical stability in temperature and humidity-controlled chamber (Example 2); type: physicochemical; set-up: key to Appearance: U: unchanged
Experimental: Chemical stability was assessed for two different samples of 5-[(Z)-(5-fluoro-2-oxo-1,2-dihydro-3H-indol-3-ylidene)methyl]-N-[(2S)-2-hydroxy-3-morpholin-4-ylpropyl]-2,4-dimethyl-1H-pyrrole-3-carboxamide maleate salt, polymorph Form 1. Samples were maintained in a temperature and humidity-controlled chamber at 25° C. and 60% relative humidity (Tables 7 and 8) or at 40° C. and 75% relative humidity (Tables 9 and 10). At various time intervals, material was removed and tested for maleate counterion assay, impurities, water content and enantiomeric purity.
The maleate counterion assay was determined by ion exchange chromatography (IEC).
A suitable amount of the maleate salt is dissolved in water (Milli Q grade) and analyzed by IEC, and compared to calibration samples. Under these conditions, the peak due to maleic acid has a retention time of about 11 minutes. The amount of maleic acid in the sample is calculated as: % Assay=(Cs/W)×100 where Cs is the concentration of maleic acid found in the sample, and W is the theoretical sample concentration in the aqueous solution.
The amounts of impurities and degradation products were determined by HPLC, using a Perkin Elmer LC 200 system with a diode array detector. The analytical column was a Waters Xterra RP18, 5 μm, 250×4.6 mm, and the guard column was a Waters Xterra RP18, 5 μm, 20×3.9 mm. Mobile phase A was a mixture of 90% 0.05 M ammonium acetate buffer at pH 5.5 and 10% acetonitrile. Mobile phase B was a mixture of 10% 0.05 M ammonium acetate buffer at pH 5.5 and 90% acetonitrile.
Flow rate was 1 mL/min, injection volume 30 μL, room temperature, 435 nm detection. Under these conditions, the peak due to the maleate salt has a retention time of about 24 minutes. Impurities are characterized by their relative retention time (RRT). The impurity at RRT=0.26 is the E isomer. The other impurities were not characterized.
Enantiomeric purity was determined by HPLC, using a Chiralpak AD analytical column, 10 μm, 250×4.6 mm (Daicel Chemical Industries, Ltd.) using an oven temperature of 30° C., a mobile phase of 2-propanol/heptane/diethylamine (50/50/0.1), an isocratic elution mode, a flow rate of 0.5 mL/min, injection volume of 50 μL, detector wavelength of 265 nm, dilution solvent 2-propanol/heptane (50/50) and a sample concentration of 0.3 mg/mL. Under these conditions, the S isomer has a retention time of about 15.5 minutes, and the R isomer has a retention time of about 22 minutes.
Water content was determined according to USP 25, <921>, Method Ic.

[3] = 25° C. and 60% Relative Humidity, 1 mo.
[4] = 25° C. and 60% Relative Humidity, 3 mo.
[5] = 25° C. and 60% Relative Humidity, 6 mo.
[6] = 25° C. and 60% Relative Humidity, Initial
[7] = 40° C. and 75% Relative Humidity, 1 mo.
[8] = 40° C. and 75% Relative Humidity, 3 mo.
[9] = 40° C. and 75% Relative Humidity, 6 mo.
[10] = 40° C. and 75% Relative Humidity, Initial

## Cc1[nH]c(/C=C2\C(=O)Nc3ccc(F)cc32)c(C)c1C(=O)NC[C@H](O)CN1CCOCC1 [initial maleate salt, 5-[(Z)-(5-fluoro-2-oxo-1,2-dihydro-3H-indol-3-ylidene)methyl]-N-[(2S)-2-hydroxy-3-morpholin-4-ylpropyl]-2,4-dimethyl-1H-pyrrole-3-carboxamide]
[1]; 80% relative humidity
  moisture uptake: about 9%
[1]
  hygroscopicity: hygroscopic

## Cc1[nH]c(/C=C2\C(=O)Nc3ccc(F)cc32)c(C)c1C(=O)NC[C@H](O)CN1CCOCC1 [HCl, form 1, 5-[(Z)-(5-fluoro-2-oxo-1,2-dihydro-3H-indol-3-ylidene)methyl]-N-[(2S)-2-hydroxy-3-morpholin-4-ylpropyl]-2,4-dimethyl-1H-pyrrole-3-carboxamide]
[1]; 80% relative humidity
  Water Uptake at 80% RH (wt. %): 3–20 wt. %
[1]; listed as hydrochloride salt
  hysteresis of sorption profile: significant hysteresis

## Cc1[nH]c(/C=C2\C(=O)Nc3ccc(F)cc32)c(C)c1C(=O)NC[C@H](O)CN1CCOCC1 [L-tartrate, 5-[(Z)-(5-fluoro-2-oxo-1,2-dihydro-3H-indol-3-ylidene)methyl]-N-[(2S)-2-hydroxy-3-morpholin-4-ylpropyl]-2,4-dimethyl-1H-pyrrole-3-carboxamide]
[1]; 80% relative humidity
  Water Uptake at 80% RH (wt. %): 9 wt. %

## Cc1[nH]c(/C=C2\C(=O)Nc3ccc(F)cc32)c(C)c1C(=O)NC[C@H](O)CN1CCOCC1 [HCl, form 2, 5-[(Z)-(5-fluoro-2-oxo-1,2-dihydro-3H-indol-3-ylidene)methyl]-N-[(2S)-2-hydroxy-3-morpholin-4-ylpropyl]-2,4-dimethyl-1H-pyrrole-3-carboxamide]
[1]
  hygroscopicity: relatively non-hygroscopic
  hysteresis of sorption profile: no significant hysteresis
[1]; 80% relative humidity
  Water Uptake at 80% RH (wt. %): 1.2 wt. %

## Cc1[nH]c(/C=C2\C(=O)Nc3ccc(F)cc32)c(C)c1C(=O)NC[C@H](O)CN1CCOCC1 [Mandalate, 5-[(Z)-(5-fluoro-2-oxo-1,2-dihydro-3H-indol-3-ylidene)methyl]-N-[(2S)-2-hydroxy-3-morpholin-4-ylpropyl]-2,4-dimethyl-1H-pyrrole-3-carboxamide]
[1]; 80% relative humidity
  Water Uptake at 80% RH (wt. %): 5–6 wt. %

## Cc1[nH]c(/C=C2\C(=O)Nc3ccc(F)cc32)c(C)c1C(=O)NC[C@H](O)CN1CCOCC1 [Malonate, 5-[(Z)-(5-fluoro-2-oxo-1,2-dihydro-3H-indol-3-ylidene)methyl]-N-[(2S)-2-hydroxy-3-morpholin-4-ylpropyl]-2,4-dimethyl-1H-pyrrole-3-carboxamide]
[1]; 80% relative humidity
  Water Uptake at 80% RH (wt. %): 12 wt. %

## Cc1[nH]c(/C=C2\C(=O)Nc3ccc(F)cc32)c(C)c1C(=O)NC[C@H](O)CN1CCOCC1 [Sample B, 5-[(Z)-(5-fluoro-2-oxo-1,2-dihydro-3H-indol-3-ylidene)methyl]-N-[(2S)-2-hydroxy-3-morpholin-4-ylpropyl]-2,4-dimethyl-1H-pyrrole-3-carboxamide]
[2]; [3]
  Appearance: U^a
  Assay (% free base equivalent): 98.2 % free base equivalent
  Impurities (%) RRT 0.26: 0.06%
  Impurities (%) RRT 0.51: 0.62%
  Impurities (%) RRT 0.71: 0.09%
  Impurities (%) RRT 1.53: 0.09%
  Impurities (%) RRT 1.74: 0.06%
  Impurities (%) RRT 1.84: 0.08%
  Total Impurities (%): 1.00%
  Water Content (%): 0.50%
[2]; [4]
  Appearance: U^a
  Assay (% free base equivalent): 98.2 % free base equivalent
  Impurities (%) RRT 0.26: 0.18%
  Impurities (%) RRT 0.51: 0.61%
  Impurities (%) RRT 0.71: 0.09%
  Impurities (%) RRT 1.53: 0.08%
  Impurities (%) RRT 1.74: 0.05%
  Impurities (%) RRT 1.84: 0.09%
  Total Impurities (%): 1.10%
  Water Content (%): 0.54%
[2]; [5]
  Appearance: U^a
  Assay (% free base equivalent): 97.7 % free base equivalent
  Impurities (%) RRT 0.26: 0.05%
  Impurities (%) RRT 0.51: 0.56%
  Impurities (%) RRT 0.71: 0.05%
  Impurities (%) RRT 1.53: 0.08%
  Impurities (%) RRT 1.74: 0.06%
  Impurities (%) RRT 1.84: 0.09%
  Total Impurities (%): 0.90%
  Water Content (%): 0.47%
[2]; [6]
  Assay (% free base equivalent): 97.8 % free base equivalent
  Enantiomeric Purity (%): >99.90%
  Impurities (%) RRT 0.26: 0.21%
  Impurities (%) RRT 0.51: 0.68%
  Impurities (%) RRT 0.71: 0.07%
  Impurities (%) RRT 1.53: 0.11%
  Impurities (%) RRT 1.74: 0.07%
  Impurities (%) RRT 1.84: 0.10%
  Total Impurities (%): 1.24%
  Water Content (%): 0.45%
[2]; [7]
  Appearance: U^a
  Assay (% free base equivalent): 98.2 % free base equivalent
  Impurities (%) RRT 0.26: 0.13%
  Impurities (%) RRT 0.51: 0.61%
  Impurities (%) RRT 0.71: 0.08%
  Impurities (%) RRT 1.53: 0.10%
  Impurities (%) RRT 1.74: 0.06%
  Impurities (%) RRT 1.84: 0.08%
  Total Impurities (%): 1.06%
  Water Content (%): 0.49%
[2]; [8]
  Appearance: U^a
  Assay (% free base equivalent): 97.2 % free base equivalent
  Impurities (%) RRT 0.26: 0.18%
  Impurities (%) RRT 0.51: 0.58%
  Impurities (%) RRT 0.71: 0.08%
  Impurities (%) RRT 1.53: 0.09%
  Impurities (%) RRT 1.74: 0.05%
  Impurities (%) RRT 1.84: 0.09%
  Total Impurities (%): 1.06%
  Water Content (%): 0.49%
[2]; [9]
  Appearance: U^a
  Assay (% free base equivalent): 97.5 % free base equivalent
  Enantiomeric Purity (%): >99.9%
  Impurities (%) RRT 0.26: 0.05%
  Impurities (%) RRT 0.51: 0.54%
  Impurities (%) RRT 1.53: 0.10%
  Impurities (%) RRT 1.74: 0.05%
  Impurities (%) RRT 1.84: 0.09%
  Total Impurities (%): 0.83%
  Water Content (%): 0.47%
[2]; [10]
  Assay (% free base equivalent): 97.8 % free base equivalent
  Enantiomeric Purity (%): >99.95%
  Impurities (%) RRT 0.26: 0.21%
  Impurities (%) RRT 0.51: 0.68%
  Impurities (%) RRT 0.71: 0.07%
  Impurities (%) RRT 1.53: 0.11%
  Impurities (%) RRT 1.74: 0.07%
  Impurities (%) RRT 1.84: 0.10%
  Total Impurities (%): 1.24%
  Water Content (%): 0.45%
